The results in this text go back to the supplement of paper PMC10307832.

Common to all, as to assay: relative viability (nuclei count vs DMSO), 5 days (fraction); higher = more cells survive
Compound in one assay: Cc1nc(Nc2ncc(C(=O)Nc3c(C)cccc3Cl)s2)cc(N2CCN(CCO)CC2)n1 [Dasatinib]
A digest of the protocol:
(§1)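 Viability was defined as treated-well nuclei divided by vehicle-well nuclei, with the median taken over replicate plates. Cells from lung cancer lines sat overnight at 37 °C in 1536-well plates, received five √10-spaced library-drug doses by pinning on vehicle-anchored plates, and grew 5 days without medium change before one-step fixation, permeabilisation and Hoechst staining, 4× imaging and MetaXpress nuclear counts. Only plates with control CV under 25% and at least one doubling were kept.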

Compound in a further assay: Cc1ccc(C(=O)Nc2cccc(C(F)(F)F)c2)cc1Nc1cncc(C(N)=O)c1 [ALW-II-49-7]
A digest of the protocol: as §1

Compound in another assay: C1CC1C(=O)NC2=NNC3=C2C=CC(=C3)C4=CC(=CC=C4)C(=O)NC5CC5 [XMD13-2]
A digest of the protocol: as §1

As for UMC-11, the relative viability is 0.916 in the assay with Dasatinib (0.005 µM); 0.801 with Dasatinib (0.01581 µM); 0.63 in the assay with Dasatinib (0.05 µM); 0.479 with Dasatinib (0.075 µM, anchor plate); 0.415 in the assay with Dasatinib (0.1581 µM); 0.37 with Dasatinib (0.5 µM). The relative viability stood at 1.01 in the assay with ALW-II-49-7 (0.08 µM); 1.02 with ALW-II-49-7 (0.253 µM); 0.975 with ALW-II-49-7 (0.8 µM); 1.02 with ALW-II-49-7 (2.53 µM); 1.01 in the assay with ALW-II-49-7 (8 µM); 1.12 in the assay with XMD13-2 (0.05 µM). For the same cell line, the relative viability in the assay with XMD13-2 (0.1581 µM) was found to be 0.945; in the assay with XMD13-2 (0.5 µM), 0.993; with XMD13-2 (1.581 µM), 0.887; with XMD13-2 (5 µM), 1.01.
